Assay results as given in patent US12195452B2, “N-(4-(oxazol-5-yl)phenyl) chromane-3-carboxamide derivatives and related compounds as stimulators of the production of retinal precursor cells for the treatment of neuroretinal diseases” (ENDOGENA THERAPEUTICS, INC., priority 2018, dated 2025).

The compounds below were run on retinal precursor cells (assay: Sphere passaging and high-throughput drug screening: proliferation of retinal precursor cells from the ciliary epithelium, cell number after one week). Conditions: control experiment (absence of a compound) = 100; cells grown for one week.
Format: cell-based, mammalian
Experimental: Kynurenic Acid (0.2 mg/mL), trypsin (1.33 mg/mL), and hyaluronidase (0.67 mg/mL) were weighed out and dissolved in high magnesium/low calcium artificial cerebral spinal fluid (aCSF) at 37° C. Fibroblast growth factor 2 (FGF2; 10 ng/mL) and heparin (2 μg/mL) were added to 100 mL of serum-free media (SFM). Ovomucoid trypsin inhibitor (1 mg/mL) was dissolved in warm SFM and sterile filtered ([…]).
A dissecting microscope, cold light source, and sterile surgical instruments were set up inside of a sterile biological safety cabinet (BSC). Mammalian eyes were enucleated and placed in a petri dish containing cold, sterile aCSF. Under the dissecting microscope, hair, connective tissue, and the dorsal and ventral oblique muscles were cleared from the scleral/corneal border with two sets of forceps. Next, curved or angled micro-dissecting scissors were used to cleave any remaining extraocular muscle tissue, the optic nerve, and cut the eyeball into symmetrical halves; beginning and finishing the cut from the hole left by the optic nerve. Using two sets of forceps to grasp the cornea, the two eye halves were peeled apart. The lens, optic nerve, and vitreous were separated from the eye shells and the eye shells were transferred into a new petri dish (also containing cold, sterile aCSF). To isolate the ciliary epithelium (CE), eye shells were oriented with the cornea on the right and retinal pigmented epithelium (RPE) on the left. A pair of straight forceps were used to pin down the eye shell on the RPE side while a scalpel blade was inserted between the CE and the iris, using pressure to slice the iris/cornea side off from the rest of the shell. Next, the scalpel was run along the border between the CE and the RPE to obtain the CE isolated as a thin strip of tissue. The CE strips were then transferred to a 35 mm dish containing 2 mL of dispase solution (Sigma; T1005) and incubated for 10 minutes at 37° C. Next, the strips were transferred from dispase into a 35 mm dish containing 2 mL of sterile filtered kynurenic acid, trypsin and hyaluronidase solution and incubated at 37° C. for 10 minutes. After incubation, the dish was returned to the dissecting scope, and the CE strips were pinned down with straight, non-serrated forceps, while non-serrated curved forceps were used to scrape the CE off from the underlying sclera. The bare scleral strips were then discarded, such that only the CE cells remained in the enzyme solution. Using a fire-polished, cotton-plugged glass pipette, the cells and enzyme solution were transferred to a 15 mL tube and triturated approximately 45 times to break apart the tissue. The 15 mL tube/cell suspension was centrifuged for 5 minutes at 1500 rpm. The supernatant was gently aspirated from the resulting pellet using a fire-polished, cotton-plugged glass pipette and 2 mL of trypsin inhibitor solution was added to the pellet. Using a small borehole, fire-polished, cotton-plugged glass pipette, the sample was triturated approximately 45 times until it was a single-cell suspension. The 15 mL tube/cell suspension was centrifuged for 5 minutes at 1500 rpm. The supernatant was gently aspirated from the resulting pellet and 1-2 mL of SFM with FGF2 and heparin (plating media) was added. The cells and media were mixed to ensure a uniform cell suspension and a 10 uL sample was taken and cell density was determined. The cells were then seeded and cultured at 10c/μL in culture-treated plates or flasks. After one week, roughly 1 in 500 cells proliferated to form free-floating, clonal spheres greater than 80 μm in diameter.
Human-derived spheres were passaged using the kynurenic acid, trypsin, hyaluronidase enzyme solution with the addition of collagenase I (0.5 mg/mL), collagenase II (0.5 mg/mL) and elastase (0.1 mg/mL). Mouse-derived spheres were passaged using hyaluronidase (0.67 mg/mL), collagenase I (0.5 mg/mL), and collagenase II (0.5 mg/mL) dissolved in Accustase solution (Sigma; SCR005). […]

SMILES	Cell proliferation within one week [%]
O=C(Nc1ccc(-c2cnco2)c(Cl)c1)C1COc2ccccc2C1 (racemic) [Compound 1, N-(3-chloro-4-(1,3-oxazol-5-yl)phenyl) chromane-3-carboxamide]	179
O=C(Nc1ccc(-c2cnco2)c(Cl)c1)C1CCOc2ccccc21 (racemic) [Compound 2, N-(3-chloro-4-(oxazol-5-yl)phenyl) chromane-4-carboxamide]	128
COc1ccc2c(c1)CC(C(=O)Nc1ccc(-c3cnco3)c(Cl)c1)CO2 (racemic) [Compound 3, N-(3-chloro-4-(oxazol-5-yl)phenyl)-6-methoxychromane-3-carboxamide]	138
O=C(Nc1ccc(-c2cnco2)c(F)c1)C1CCOc2ccccc21 (racemic) [Compound 4, N-(3-fluoro-4-(oxazol-5-yl)phenyl)chromane-4-carboxamide]	106
O=C(Nc1ccc(-c2cnco2)c(F)c1)C1COc2ccccc2C1 (racemic) [Compound 5, N-(3-fluoro-4-(oxazol-5-yl)phenyl)chromane-3-carboxamide]	133
O=C(Nc1ccc(-c2cnco2)c(Cl)c1)C1COc2ccccc2O1 (racemic) [Compound 6, N-(3-chloro-4-(oxazol-5-yl)phenyl)-2,3-dihydrobenzo[b][1,4]dioxine-2-carboxamide]	120
COc1ccc2c(c1)OC(C(=O)Nc1ccc(-c3cnco3)c(F)c1)CO2 (racemic) [Compound 7, N-(3-fluoro-4-(oxazol-5-yl)phenyl)-7-methoxy-2,3-dihydrobenzo[b][1,4]dioxine-2-carboxamide]	123
COc1ccc2c(c1)OC(C(=O)Nc1ccc(-c3cnco3)c(Cl)c1)CO2 (racemic) [Compound 8, N-(3-chloro-4-(oxazol-5-yl)phenyl)-7-methoxy-2,3-dihydrobenzo[b][1,4]dioxine-2-carboxamide]	117
O=C(Nc1ccc(-c2cnco2)c(F)c1)C1COc2ccccc2O1 (racemic) [Compound 9, N-(3-fluoro-4-(oxazol-5-yl)phenyl)-2,3-dihydrobenzo[b][1,4]dioxine-2-carboxamide]	118
COc1ccc2c(c1)CC(C(=O)Nc1ccc(-c3cnco3)c(F)c1)CO2 (racemic) [Compound 10, N-(3-fluoro-4-(oxazol-5-yl)phenyl)-6-methoxychromane-3-carboxamide]	121
COc1cc(NC(=O)C2CCOc3ccccc32)ccc1-c1cnco1 (racemic) [Compound 11, N-(3-methoxy-4-(oxazol-5-yl)phenyl) chromane-4-carboxamide]	140
COc1cc(NC(=O)C2COc3ccccc3C2)ccc1-c1cnco1 (racemic) [Compound 12, N-(3-methoxy-4-(oxazol-5-yl)phenyl) chromane-3-carboxamide]	230
COc1cc(NC(=O)C2COc3ccccc3O2)ccc1-c1cnco1 (racemic) [Compound 13, N-(3-methoxy-4-(oxazol-5-yl)phenyl)-2,3-dihydrobenzo[b][1,4]dioxine-2-carboxamide]	137
COc1ccc2c(c1)CC(C(=O)Nc1ccc(-c3cnco3)c(OC)c1)CO2 (racemic) [Compound 14, 6-methoxy-N-(3-methoxy-4-(oxazol-5-yl)phenyl)chromane-3-carboxamide]	196
COc1cc(NC(=O)C2CCOc3ccccc32)ccc1-c1ccncc1 (racemic) [Compound 15, N-(3-methoxy-4-(pyridin-4-yl)phenyl)chromane-4-carboxamide]	122
COc1ccc2c(c1)CC(C(=O)Nc1ccc(-c3ccncc3)c(OC)c1)CO2 (racemic) [Compound 16, 6-methoxy-N-(3-methoxy-4-(pyridin-4-yl)phenyl)chromane-3-carboxamide]	143

SMILES	Cell proliferation within one week [%]
COc1cc(NC(=O)C2COc3ccccc3C2)ccc1-c1ccncc1 (racemic) [Compound 17, N-(3-methoxy-4-(pyridin-4-yl)phenyl)chromane-3-carboxamide]	114
COc1ccc2c(c1)OC(C(=O)Nc1ccc(-c3ccncc3)c(OC)c1)CO2 (racemic) [Compound 18, 7-methoxy-N-(3-methoxy-4-(pyridin-4-yl)phenyl)-2,3-dihydrobenzo[b][1,4]dioxine-2-carboxamide]	104
COc1cc(NC(=O)C2COc3ccccc3O2)ccc1-c1ccncc1 (racemic) [Compound 19, N-(3-methoxy-4-(pyridin-4-yl)phenyl)-2,3-dihydrobenzo[b][1,4]dioxine-2-carboxamide]	110
COc1ccc2c(c1)OC(C(=O)Nc1ccc(-c3cnco3)c(OC)c1)CO2 (racemic) [Compound 20, 7-methoxy-N-(3-methoxy-4-(oxazol-5-yl)phenyl)-2,3-dihydrobenzo[b][1,4]dioxine-2-carboxamide]	113
Cc1cc(NC(=O)C2COc3ccccc3C2)ccc1-c1cnco1 (racemic) [Compound 22, N-(3-methyl-4-(oxazol-5-yl)phenyl) chromane-3-carboxamide]	120
Cc1cc(-c2cnco2)ccc1NC(=O)C1COc2ccccc2C1 (racemic) [Compound 23, N-(2-methyl-4-(oxazol-5-yl)phenyl) chroman-3-carboxamide]	116
O=C(Nc1ccc(-c2cnco2)cc1OC(F)F)C1COc2ccccc2C1 (racemic) [Compound 24, N-(2-(difluoromethoxy)-4-(oxazol-5-yl)phenyl)chroman-3-carboxamide]	126
O=C(Nc1ccc(-n2cncn2)c(C(F)(F)F)c1)C1COc2ccccc2C1 (racemic) [Compound 28, N-(4-(1H-1,2,4-triazol-1-yl)-3-(trifluoromethyl)phenyl)chromane-3-carboxamide]	118
O=C(Nc1ccc(-c2nnco2)c(F)c1)C1COc2ccccc2C1 (racemic) [Compound 29, N-(3-fluoro-4-(1,3,4-oxadiazol-2-yl)phenyl)chromane-3-carboxamide]	108
Cc1ncc(-c2ccc(NC(=O)C3COc4ccccc4C3)cc2Cl)o1 (racemic) [Compound 30, N-(3-chloro-4-(2-methyloxazol-5-yl)phenyl)chromane-3-carboxamide]	119
O=C(Nc1ccc(-c2cnco2)c(Cl)c1)C1Cc2ccccc2O1 (racemic) [Compound 31, N-(3-chloro-4-(oxazol-5-yl)phenyl)-2,3-dihydrobenzofuran-2-carboxamide]	137
O=C(Nc1ccc(-c2cnco2)c(Cl)c1)C1CCOc2ccccc21 (racemic) [Compound 32, N-(3-chloro-4-(oxazol-5-yl)phenyl)chromane-4-carboxamide]	113
O=C(Nc1ccc(-c2cnco2)c(Cl)c1)C1CCc2ccccc21 (racemic) [Compound 33, N-(3-chloro-4-(oxazol-5-yl)phenyl)-2,3-dihydro-1H-indene-1-carboxamide]	116
O=C(CC1Cc2ccccc2O1)Nc1ccc(-c2cnco2)c(Cl)c1 (racemic) [Compound 34, N-(3-chloro-4-(oxazol-5-yl)phenyl)-2-(2,3-dihydrobenzofuran-2-yl)acetamide]	129
O=C(Nc1ccc(-c2cnco2)c(Cl)c1)C1COc2ccccc21 (racemic) [Compound 35, N-(3-chloro-4-(oxazol-5-yl)phenyl)-2,3-dihydrobenzofuran-3-carboxamide]	125

Same assay, conditions: within one week, over control

SMILES	increase of cell proliferation [%]
O=C(Nc1ccc(-c2cnco2)c(Cl)c1)C1COc2ccccc2C1 (racemic) [Compound 1, N-(3-chloro-4-(1,3-oxazol-5-yl)phenyl) chromane-3-carboxamide]	79
COc1cc(NC(=O)C2CCOc3ccccc32)ccc1-c1cnco1 (racemic) [Compound 11, N-(3-methoxy-4-(oxazol-5-yl)phenyl) chromane-4-carboxamide]	40
COc1cc(NC(=O)C2COc3ccccc3C2)ccc1-c1cnco1 (racemic) [Compound 12, N-(3-methoxy-4-(oxazol-5-yl)phenyl) chromane-3-carboxamide]	130
COc1ccc2c(c1)CC(C(=O)Nc1ccc(-c3cnco3)c(OC)c1)CO2 (racemic) [Compound 14, 6-methoxy-N-(3-methoxy-4-(oxazol-5-yl)phenyl)chromane-3-carboxamide]	96
COc1ccc2c(c1)CC(C(=O)Nc1ccc(-c3ccncc3)c(OC)c1)CO2 (racemic) [Compound 16, 6-methoxy-N-(3-methoxy-4-(pyridin-4-yl)phenyl)chromane-3-carboxamide]	43
